Earlier results, collected in patent US4760029A, “Assay for D-1 antagonistic activity of neuroleptic drugs” (Schering Corporation, priority 1984, dated 1988).

How the values were obtained:
D-1 sites = conditions: Eur. J. Pharmacol. 91, 153(1983)
D-2 sites = conditions: J. Pharmacol. Exp. Ther., 226, 462 (1983)
[1] = J. Pharmacol. Exp. Ther., 226, 462 (1983)
[2] = test system: dopamine stimulated adenylate cyclase; conditions: J. Pharmacol. Exp. Ther., 226, 462 (1983)

CN1CCc2cc(Cl)c(O)cc2[C@@H](c2ccccc2)C1 [Compound, R-(+)-8-chloro-2,3,4,5-tetrahydro-3-methyl-5-phenyl-1H-3-benzazepin-7-ol]
ability to inhibit ^3 H-cis-(Z)-piflutixol binding (D-1 sites): very potent | displacement of ^3 H-spiperone binding (D-2 sites): weak displacement | prolactinemia [1]: no prolactinemia | blockade of dopamine stimulated adenylate cyclase [2]: potent blockade
